Literature values as cited in patent US12240810B2, “Chiral-substituted poly-N-vinylpyrrolidinones and complexes with bimetallic nanoclusters and uses thereof in asymmetric oxidation reactions” (Kansas State University Research Foundation, priority 2019, dated 2025).
Values after ≈ are worked out from the molar mass of the structure shown.

Tested on: Staphylococcus aureus
Details: antibacterial activity, background statement on the natural product

## CC=CCCCC[C@@]1(O)[C@H](C)C(=O)N2CCC[C@@]21CO [compound 113, (−)-Penibruguieramine A]
  MIC value: 6.4 mg/L (≈ 22.7 µM)
